Data on one compound can be found in patent US20080096989A1, “Flame Retardant Expanded Polystyrene Foam Compositions” (ALBEMARLE CORPORATION, priority 2004, published 2008).

A short description of the data set: Thermal HBr Measurement Test (thermal stability). The settings on record: heated about 15 minutes at about 220° C. under nitrogen; average of duplicate; lower = more thermally stable. Type of data set: physicochemical. Here is the method:
The thermal stability of N,2-3-dibromopropyl-4,5-dibromohexahydrophthalimde (“compound (I)”) used in accordance with the present invention was evaluated using the Thermal HBr Measurement Test.
First, a sample of from about 0.5 to about 1.0 g flame retardant was weighed into a three neck 50 mL round bottom flask. Teflon tubing was then attached to one of the openings in the flask. Nitrogen was fed into the flask through the Teflon tubing at a flow rate of about 0.5 SCFH. A small reflux condenser was attached to another opening on the flask. The third opening was plugged. An about 50 vol % solution of glycol in water at a temperature of about 85° C. was run through the reflux condenser. Viton tubing was attached to the top of the condenser and to a gas-scrubbing bottle. Two more bottles were attached in series to the first. All three bottles had about 90 mL of about 0.1 N NaOH solutions. After assembling the apparatus, the nitrogen was allowed to purge through the system for about 2 minutes. The round bottom flask was then placed into an oil bath at about 220° C. and the sample was heated for about 15 minutes. The flask was then removed from the oil bath and the nitrogen was allowed to purge for about 2 minutes. The contents of the three gas scrubbing bottles were transferred to a 600 mL beaker. The bottles and viton tubing were rinsed into the beaker. […]

For the compound `O=C1C2CC(Br)C(Br)CC2C(=O)N1CC(Br)CBr` (stereo not shown) [compound I, N,2-3-dibromopropyl-4,5-dibromohexahydrophthalimde], the “HBr (ppm)” value is on record as 2,058 ppm.
